Results as given in patent US4735958A, “Trans-6-[2-[2-(substituted-phenyl)-3- (or 4-) heteroaryl-5-substituted-1H-pyrrol-1-yl]-ethyl]tetrahydro-4-hydroxy-2H-p yran-2-one inhibitors of cholesterol biosynthesis” (Warner-Lambert Company, priority 1986, dated 1988).

test system: sterol synthesis; experiment: CSI: inhibition of cholesterol biosynthesis, incorporation of cholesterol-^14 C-acetate into nonsaponifiable lipid by rat liver homogenate; type: biochemical; details: 50% inhibition of sterol synthesis over a one-hour period; liver homogenate of rats fed chow diet containing 5% cholestyramine for four days
Description: The ability of compounds of the present invention to inhibit the biosynthesis of cholesterol was measured by the procedure described by R. E. Dugan et al., Archiv. Biochem. Biophys., (1972), 152, 21-27. In this method, designated CSI, the level of HMG-CoA enzyme activity in standard laboratory rats is increased by feeding the rats a chow diet containing 5% cholestyramine for four days, after which the rats are sacrificed.
The rat livers are homogenized, and the incorporation of cholesterol-^14 C-acetate into nonsaponifiable lipid by the rat liver homogenate is measured. The micromolar concentration of compound required for 50% inhibition of sterol synthesis over a one-hour period is measured, and expressed as an IC50 value.

IC50	SMILES
48 nM	CC(C)c1cc(-c2ccccn2)c(-c2ccc(F)cc2)n1CC[C@H]1C[C@H](O)CC(=O)O1 (racemic) [Compound 1, trans-(±)-6-[2-[2-(4-Fluorophenyl)-5-(1-methylethyl)-3-(2-pyridinyl)-1H-pyrrol-1-yl]ethyl]tetrahydro-4-hydroxy-2H-pyran-2-one]
13 nM	CC(C)c1cc(-c2ccncc2)c(-c2ccc(F)cc2)n1CC[C@H]1C[C@H](O)CC(=O)O1 (racemic) [Compound 3, trans-(±)-6-[2-[2-(4-Fluorophenyl)-5-(1-methylethyl)-3-(4-pyridinyl)-1H-pyrrol-1-yl]ethyl]tetrahydro-4-hydroxy-2H-pyran-2-one]
55 nM	CC(C)c1cc(-c2cccnc2)c(-c2ccc(F)cc2)n1CC[C@@H]1C[C@@H](O)CC(=O)O1 (relative stereo) [Compound 2, trans-(±)-6-[2-[2-[(4-Fluorophenyl)-5-(1-methylethyl)-3-(3-pyridinyl)-1H-pyrrol-1-yl]ethyl]tetrahydro-4-hydroxy-2H-pyran-2-one]
18 nM	CC[C@H](C)C(=O)O[C@H]1CCC=C2C=C[C@H](C)[C@H](CC[C@@H]3C[C@@H](O)CC(=O)O3)[C@H]21 [Compactin, reference compound]
